Measurements from paper doi:10.1101/2024.12.12.628185v1 (biorxiv, 2024).

Molecular target: T1, ERα (purified full-length human ERα) (Homo sapiens, UniProt P03372)
T1 sequence (P03372 1-595): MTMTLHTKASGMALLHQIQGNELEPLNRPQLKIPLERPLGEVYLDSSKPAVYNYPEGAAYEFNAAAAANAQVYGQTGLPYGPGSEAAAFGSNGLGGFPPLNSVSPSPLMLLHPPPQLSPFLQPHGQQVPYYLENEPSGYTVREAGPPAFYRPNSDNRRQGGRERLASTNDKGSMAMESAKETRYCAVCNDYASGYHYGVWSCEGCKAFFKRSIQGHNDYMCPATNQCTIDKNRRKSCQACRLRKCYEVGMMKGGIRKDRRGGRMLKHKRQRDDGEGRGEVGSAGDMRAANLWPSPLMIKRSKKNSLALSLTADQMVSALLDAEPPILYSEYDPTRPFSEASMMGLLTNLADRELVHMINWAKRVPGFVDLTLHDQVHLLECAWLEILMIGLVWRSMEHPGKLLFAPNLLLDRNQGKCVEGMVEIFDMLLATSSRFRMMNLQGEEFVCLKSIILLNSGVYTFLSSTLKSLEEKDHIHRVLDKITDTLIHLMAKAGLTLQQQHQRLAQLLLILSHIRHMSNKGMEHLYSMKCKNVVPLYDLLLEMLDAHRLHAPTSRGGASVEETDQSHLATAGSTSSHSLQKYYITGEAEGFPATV
Assay: biochemical
Assay type: binding

CCCCC(CC)COC(=O)c1ccccc1C(=O)OCC(CC)CCCC (stereo not shown) [DEHP]
IC50: ~500 µM
